According to ChEMBL document CHEMBL5518206, “Hit-to-Lead Identification and Validation of a Triaromatic Pleuromutilin Antibiotic Candidate” (J Med Chem, 2024):
pKi: −log10 of the molar value. Active and inactive are the calls of the source. The calls are words filed in the database; no cut-off is given here.

Assays:
[1] = tested on: Staphylococcus aureus; assay: (§1) Induction of resistant development in lefamulin 5 passages resistance developed Staphylococcus aureus USA300 FPR3757 assessed as fold increase in MIC at sub-MIC concentration measured after 18 passages with conjugate by serial passage assay; format: functional
[2] = tested on: Escherichia coli; assay: Antibacterial activity against Escherichia coli assessed as inhibition of visible growth incubated for 20 to 24 hrs by microbroth serial dilution assay; format: functional, organism-based; conditions: time 20-24 hrs
[3] = tested on: Staphylococcus aureus; assay: as §1, with “-(6-(6-(Piperazin-1-y1)-9H-purin-9-y)methyl)pyridin-3-y1)-1H-1,2,3-triazol-1-yl)-22-deoxypleuromutilin-16” for “lefamulin 5”, “9” for “18”; format: functional
[4] = tested on: Staphylococcus aureus; assay: (§2) Induction of resistant development in lefamulin 5 passages resistance developed Staphylococcus aureus USA300 FPR3757 assessed as fold increase in MIC at sub-MIC concentration measured after 25 passages with conjugate by serial passage assay; format: functional
[5] = tested on: Staphylococcus aureus; assay: as §1, with “-(6-(6-(Piperazin-1-y1)-9H-purin-9-y)methyl)pyridin-3-y1)-1H-1,2,3-triazol-1-yl)-22-deoxypleuromutilin-16” for “lefamulin 5”, “13” for “18”; format: functional
[6] = tested on: Staphylococcus aureus; assay: Induction of resistant development in linezolid 5 passages resistance developed Staphylococcus aureus USA300 FPR3757 assessed as fold increase in MIC at sub-MIC concentration measured after 22 passages with conjugate by serial passage assay; format: functional
[7] = tested on: Staphylococcus aureus; assay: as §2, with “-(6-(6-(Piperazin-1-y1)-9H-purin-9-y)methyl)pyridin-3-y1)-1H-1,2,3-triazol-1-yl)-22-deoxypleuromutilin-16” for “lefamulin 5”; format: functional
[8] = tested on: Staphylococcus aureus; assay: Induction of resistant development in linezolid 5 passages resistance developed Staphylococcus aureus USA300 FPR3757 assessed as fold increase in MIC at sub-MIC concentration measured after 9 passages with conjugate by serial passage assay; format: functional
[9] = Cardio-toxicity in human assessed as QT prolongation by measuring increase in mean QTc
[10] = molecular target: Cytochrome P450 3A4 (Homo sapiens, UniProt P08684); assay: Inhibition of CYP3A4 in pooled human liver microsomes using midazolam as substrate; format: ADME, Microsome
[11] = tested on: Staphylococcus aureus; assay: (§3) Induction of resistant development in linezolid 5 passages resistance developed Staphylococcus aureus USA300 FPR3757 assessed as fold increase in MIC at sub-MIC concentration measured after 5 passages with conjugate by serial passage assay; format: functional
[12] = tested on: Staphylococcus aureus; assay: Induction of resistant development in lefamulin 5 passages resistance developed Staphylococcus aureus USA300 FPR3757 assessed as fold increase in MIC at sub-MIC concentration measured after 22 passages with conjugate by serial passage assay; format: functional
[13] = tested on: Staphylococcus aureus; assay: as §3, with “in -(6-(6-(Piperazin-1-y1)-9H-purin-9-y)methyl)pyridin-3-y1)-1H-1,2,3-triazol-1-yl)-22-deoxypleuromutilin-16” for “in linezolid 5”, “after 28” for “after 5”; format: functional
[14] = tested on: Staphylococcus aureus; assay: Induction of resistant development in linezolid 5 passages resistance developed Staphylococcus aureus USA300 FPR3757 assessed as fold increase in MIC at sub-MIC concentration measured after 18 passages with conjugate by serial passage assay; format: functional
[15] = tested on: Staphylococcus aureus; assay: Antibacterial activity against multi drug-resistant Staphylococcus aureus USA300 FPR3757 assessed as reduction in bacterial growth at 1 times of MIC concentration measured after 24 hrs by time-kill assay; format: functional, organism-based
[16] = Elimination rate constant in pig urine at 3 mg/kg, iv measured upto 240 mins by LC-MS/MS analysis; format: ADME, organism-based, Sus scrofa
[17] = AUC (0 to infinity) in pig urine at 3 mg/kg, iv measured upto 240 mins by LC-MS/MS analysis; format: ADME, organism-based, Sus scrofa; conditions: in vivo, 4 h
[18] = Clearance in pig urine at 3 mg/kg, iv measured upto 240 mins by LC-MS/MS analysis; format: ADME, organism-based, Sus scrofa
[19] = Elimination rate constant in NMRI female mouse at 30 mg/kg, iv by HPLC analysis; format: ADME, organism-based; conditions: in vivo
[20] = Cmax in pig urine at 3 mg/kg, iv measured upto 240 mins by LC-MS/MS analysis; format: ADME, organism-based, Sus scrofa
[21] = Cmax in NMRI female mouse at 20 mg/kg, sc by HPLC analysis; format: ADME, organism-based; conditions: in vivo
[22] = Bioavailability in NMRI female mouse at 60 mg/kg, sc by HPLC analysis; format: ADME, organism-based; conditions: in vivo
[23] = AUC (0 to infinity) in pig urine at 10 mg/kg, po measured upto 240 mins by LC-MS/MS analysis; format: ADME, organism-based, Sus scrofa; conditions: in vivo, 4 h
[24] = Cmax in NMRI female mouse at 30 mg/kg, iv by HPLC analysis; format: ADME, organism-based; conditions: in vivo
[25] = Half life in pig urine at 3 mg/kg, iv measured upto 240 mins by LC-MS/MS analysis; format: ADME, organism-based, Sus scrofa
[26] = Cmax in pig urine at 10 mg/kg, po measured upto 240 mins by LC-MS/MS analysis; format: ADME, organism-based, Sus scrofa
[27] = Volume of distribution in NMRI female mouse at 60 mg/kg, sc by HPLC analysis; format: ADME, organism-based; conditions: in vivo
[28] = Bioavailability in pig plasma at 10 mg/kg, po measured upto 240 mins by LC-MS/MS analysis; format: ADME, organism-based, Sus scrofa
[29] = Cmax in NMRI female mouse at 60 mg/kg, sc by HPLC analysis; format: ADME, organism-based; conditions: in vivo
[30] = Elimination rate constant in NMRI female mouse at 60 mg/kg, sc by HPLC analysis; format: ADME, organism-based; conditions: in vivo
[31] = Clearance in pig plasma at 3 mg/kg, iv measured upto 240 mins by LC-MS/MS analysis; format: ADME, organism-based, Sus scrofa
[32] = AUC (0 to infinity) in NMRI female mouse at 30 mg/kg, iv by HPLC analysis; format: ADME, organism-based; conditions: in vivo
[33] = Tmax in NMRI female mouse at 30 mg/kg, iv by HPLC analysis; format: ADME, organism-based; conditions: in vivo
[34] = Half life in pig plasma at 10 mg/kg, po measured upto 240 mins by LC-MS/MS analysis; format: ADME, organism-based, Sus scrofa
[35] = Volume of distribution in NMRI female mouse at 30 mg/kg, iv by HPLC analysis; format: ADME, organism-based; conditions: in vivo
[36] = Plasma concentration in pig at 10 mg/kg, po measured upto 240 mins by LC-MS/MS analysis; format: ADME, organism-based, Sus scrofa
[37] = AUC (0 to infinity) in NMRI female mouse at 60 mg/kg, sc by HPLC analysis; format: ADME, organism-based; conditions: in vivo
[38] = Clearance in NMRI female mouse at 30 mg/kg, iv by HPLC analysis; format: ADME, organism-based; conditions: in vivo
[39] = Volume of distribution in NMRI female mouse at 20 mg/kg, sc by HPLC analysis; format: ADME, organism-based; conditions: in vivo
[40] = Clearance in NMRI female mouse at 20 mg/kg, sc by HPLC analysis; format: ADME, organism-based; conditions: in vivo
[41] = Clearance in NMRI female mouse at 60 mg/kg, sc by HPLC analysis; format: ADME, organism-based; conditions: in vivo
[42] = Elimination rate constant in pig plasma at 3 mg/kg, iv measured upto 240 mins by LC-MS/MS analysis; format: ADME, organism-based, Sus scrofa
[43] = Bioavailability in NMRI female mouse at 30 mg/kg, po by HPLC analysis; format: ADME, organism-based; conditions: in vivo

Sequence of Cytochrome P450 3A4 (P08684 whole entry): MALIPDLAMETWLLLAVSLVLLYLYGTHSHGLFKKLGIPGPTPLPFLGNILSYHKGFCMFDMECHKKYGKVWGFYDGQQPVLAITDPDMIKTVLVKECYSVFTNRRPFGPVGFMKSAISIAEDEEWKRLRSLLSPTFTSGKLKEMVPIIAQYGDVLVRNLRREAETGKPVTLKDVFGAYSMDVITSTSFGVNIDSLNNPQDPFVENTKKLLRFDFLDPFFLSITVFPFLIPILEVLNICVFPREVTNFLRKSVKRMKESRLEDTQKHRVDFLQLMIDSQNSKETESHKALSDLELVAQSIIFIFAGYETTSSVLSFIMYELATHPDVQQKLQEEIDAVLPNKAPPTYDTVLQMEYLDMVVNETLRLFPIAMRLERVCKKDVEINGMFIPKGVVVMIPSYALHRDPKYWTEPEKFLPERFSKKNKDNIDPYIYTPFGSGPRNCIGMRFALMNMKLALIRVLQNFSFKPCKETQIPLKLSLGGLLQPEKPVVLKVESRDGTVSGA

C=C[C@]1(C)C[C@@H](OC(=O)CS[C@@H]2CC[C@@H](N)C[C@H]2O)[C@]2(C)[C@H](C)CC[C@]3(CCC(=O)[C@H]32)[C@@H](C)[C@@H]1O [LEFAMULIN]
fold change (FC) [1]: 32 | Activity [2]: inactive | fold change (FC) [3]: 8 | fold change (FC) [4]: 64 | fold change (FC) [5]: 16 | fold change (FC) [6]: 32 | fold change (FC) [7]: 64 | fold change (FC) [8]: 8 | QTc increase [9]: 10 ms | pKi [10]: 6.07 | fold change (FC) [11]: 4 | fold change (FC) [12]: 32 | fold change (FC) [13]: 128 | fold change (FC) [14]: 16 | Activity [15]: inactive

C=C[C@]1(C)C[C@@H](OC(=O)Cn2cc(-c3ccc(Cn4cnc5c(N6CCNCC6)ncnc54)nc3)nn2)[C@]2(C)[C@H](C)CC[C@]3(CCC(=O)[C@H]32)[C@@H](C)[C@@H]1O
k el at 4 h [16]: 0.000418 s⁻¹ | AUC [17]: 821 µg/mL/min | CL renal at 4 h [18]: 3.67 mL/min/kg | k el [19]: 0.000218 s⁻¹ | Cmax [20]: 18700 ng/mL | Cmax [21]: 1180 ng/mL | bioavailability [22]: 33% | AUC [23]: 22.5 µg/mL/min | Cmax [24]: 8560 ng/mL | half-life [25]: 27.6 min | Cmax [26]: 114 ng/mL | Vd [27]: 22 L/kg | bioavailability [28]: 6% | Cmax [29]: 2560 ng/mL | k el [30]: 0.000102 s⁻¹ | clearance [31]: 84.7 mL/min/kg | AUC [32]: 643 µg/mL/min | Tmax [33]: 0 h | half-life [34]: 22.2 min | Vd [35]: 3.5 L/kg | concentration at 4 h [36]: 49.7 ng/mL | AUC [37]: 428 µg/mL/min | clearance [38]: 69.8 mL/min/kg | Vd [39]: 17.1 L/kg | CL/F [40]: 90.3 mL/min/kg | CL/F [41]: 140 mL/min/kg | k el at 4 h [42]: 0.000155 s⁻¹ | bioavailability [43]: 0.3%
